These are literature values, as cited in patent US20230172880A1, “FAST-ACTING TOPICAL ANESTHETIC FORMULATIONS” (priority 2020, published 2023).

For this data set the following is noted: administered directly into tissue.

As for `CCN(CC)CC(=O)Nc1c(C)cccc1C` [lidocaine], the onset result is “less than 2 min”.
